Experimental data from patent US20260159511A1, “SMALL MOLECULE STING ANTAGONISTS” (CURADEV PHARMA PVT. LTD., priority 2021, published 2026).

System: IRF pathway in THP1-Dual™ cells, THP-1 (HAQ)
Assay: Reporter gene expression assay in THP-1 cells (THP1-Dual, IRF pathway Lucia luciferase reporter, 2′,3′-cGAMP stimulation)
Format: cell-based, human
Details: Homo sapiens; THP1-Dual cells preincubated with compound 10 minutes, stimulation with 5 μM 2′,3′-cGAMP for 20 hr, QUANTI-Luc readout of the supernatant; read-out: THP-1 (HAQ) Activity (IC50 value range)
Procedure: Reporter Gene Expression Assay in THP-1 Cells
THP1-Dual™ cells (Invivogen) were derived from the human THP-1 monocyte cell line by stable integration of two inducible reporter constructs. As a result, THP1-Dual™ cells allow the simultaneous study of the IRF pathway, by assessing the activity of a secreted luciferase (Lucia) and the NF-κB pathway, by monitoring the activity of secreted SEAP. 5×10^4 THP1-Dual™ cells were seeded in 384-well plates in growth medium and preincubated with novel compounds for 10 minutes followed by stimulation with 5 μM 2′,3′-cGAMP. After 20 hr of stimulation the supernatant was removed and the IRF pathway reporter protein was readily measured in the cell culture supernatant using QUANTI-Luc™ (Invivogen), a luciferase detection reagent on a Spectramax i3X luminometer.

Structure (SMILES) | IC50
Cc1ncc(-c2ccc3[nH]cc(NC(=O)Nc4ccc5c(c4)N(Cc4ccccc4)C(=O)CS5)c3c2)o1 [Example 41, 1-(4-benzyl-3-oxo-3,4-dihydro-2H-benzo[b][1,4]thiazin-6-yl)-3-(5-(2-methyloxazol-5-yl)-1H-indol-3-yl)urea] | 1 to 10 µM
O=C(Nc1ccc2c(c1)N(Cc1c(F)cccc1Cl)C(=O)CS2)Nc1c[nH]c2ccc(Cl)cc12 [Example 28, 1-(5-chloro-1H-indol-3-yl)-3-(4-(2-chloro-6-fluorobenzyl)-3-oxo-3,4-dihydro-2H-benzo[b][1,4]thiazin-6-yl)urea] | 1 to 10 µM
O=C(Nc1ccc2c(c1)N(Cc1ccccc1)C(=O)CS2)Nc1c[nH]c2cnccc12 [Example 15, 1-(4-benzyl-3-oxo-3,4-dihydro-2H-benzo[b][1,4]thiazin-6-yl)-3-(1H-pyrrolo[2,3-c]pyridin-3-yl)urea] | < 1 µM
CC1Sc2ccc(NC(=O)Nc3c[nH]c4ccccc34)cc2N(Cc2ccccc2)C1=O (centres unmarked) [Example 29, 1-(4-benzyl-2-methyl-3-oxo-3,4-dihydro-2H-benzo[b][1,4]thiazin-6-yl)-3-(1H-indol-3-yl)urea] | < 1 µM
O=C(Nc1ccc2c(c1)OCCN2Cc1ccccc1)Nc1c[nH]c2ccccc12 [Example 72, 1-(4-benzyl-3,4-dihydro-2H-benzo[b][1,4]oxazin-7-yl)-3-(1H-indol-3-yl)urea] | < 1 µM
O=C(Nc1ccc2c(c1)N(Cc1c(F)cccc1Cl)CCS2)Nc1c[nH]c2ccccc12 [Example 75, 1-(4-(2-chloro-6-fluorobenzyl)-3,4-dihydro-2H-benzo[b][1,4]thiazin-6-yl)-3-(1H-indol-3-yl)urea] | < 1 µM

Continued, values first:

IC50 | Structure (SMILES)
< 1 µM | O=C(Nc1ccc2c(c1)SCC(=O)N2Cc1ccccc1)Nc1c[nH]c2ccccc12 [Example 7, 1-(4-benzyl-3-oxo-3,4-dihydro-2H-benzo[b][1,4]thiazin-7-yl)-3-(1H-indol-3-yl)urea]
< 1 µM | O=C(Nc1ccc2c(c1)N(Cc1ccccc1)C(=O)CS2)Nc1c[nH]c2ccc(-c3cncs3)cc12 [Example 64, 1-(4-benzyl-3-oxo-3,4-dihydro-2H-benzo[b][1,4]thiazin-6-yl)-3-(5-(thiazol-5-yl)-1H-indol-3-yl)urea]
< 1 µM | O=C1Cc2ccc(-c3ccc4[nH]cc(NC(=O)Nc5ccc6c(c5)N(Cc5ccccc5)C(=O)CS6)c4c3)cc2N1 [Example 62, 1-(4-benzyl-3-oxo-3,4-dihydro-2H-benzo[b][1,4]thiazin-6-yl)-3-(5-(2-oxoindolin-6-yl)-1H-indol-3-yl)urea]
< 1 µM | CC1Sc2ccc(NC(=O)Nc3c[nH]c4ccc(F)cc34)cc2N(Cc2cc(F)cc(F)c2)C1=O (centres unmarked) [Example 31, 1-(4-(3,5-difluorobenzyl)-2-methyl-3-oxo-3,4-dihydro-2H-benzo[b][1,4]thiazin-6-yl)-3-(5-fluoro-1H-indol-3-yl)urea]
< 1 µM | O=C(Nc1ccc2c(c1)OCC(=O)N2Cc1ccccc1)Nc1c[nH]c2ccccc12 [Example 3, 1-(4-benzyl-3-oxo-3,4-dihydro-2H-benzo[b][1,4]oxazin-7-yl)-3-(1H-indol-3-yl)urea]
< 1 µM | O=C(Nc1ccc2c(c1)SCCN2Cc1c(F)cccc1Cl)Nc1c[nH]c2ccccc12 [Example 77, 1-(4-(2-chloro-6-fluorobenzyl)-3,4-dihydro-2H-benzo[b][1,4]thiazin-7-yl)-3-(1H-indol-3-yl)urea]
< 1 µM | COc1ccc(F)c(CN2C(=O)CSc3ccc(NC(=O)Nc4c[nH]c5ccccc45)cc32)c1Cl [Example 25, 1-(4-(2-chloro-6-fluoro-3-methoxybenzyl)-3-oxo-3,4-dihydro-2H-benzo[b][1,4]thiazin-6-yl)-3-(1H-indol-3-yl)urea]
< 1 µM | O=C(Nc1ccc2c(c1)N(Cc1ccccc1)CCO2)Nc1c[nH]c2ccccc12 [Example 71, 1-(4-benzyl-3,4-dihydro-2H-benzo[b][1,4]oxazin-6-yl)-3-(1H-indol-3-yl)urea]
